According to patent publication US20040157268A1, “Conformational assays to detect binding to membrane spanning, signal-transducing proteins” (priority 2001, published 2004):
One block for each molecule: values may come before it.

Legend:
FM-β2AR [1] = biological target: T1, FM-β2AR (Homo sapiens, UniProt P07550); assay: Quenching of FM-β2AR fluorescence (KI, oxyl-NHS, nitroxide fatty acids), Stern-Volmer; format: biochemical; parameters: made in house; conditions: for quenching constant Ksv (nitroxide fatty acids): total lipid constant with stearic acid, n=3
FM-β2AR [2] = biological target: T1, FM-β2AR; assay: Fluorescence intensity of FM-β2AR (fluorescein maleimide at Cys265), time course; conditions: ligand added to FM-β2AR, in words
FM-β2AR [3] = biological target: T1, FM-β2AR; assay: Fluorescence lifetime analysis of FM-β2AR (frequency domain); format: biochemical; parameters: made in house
Source text: Fluorescence lifetime analysis of fluorescein labeled β2AR. […] The instrument covered a wide frequency range (4-5000 MHz), which allowed detection of lifetimes ranging from several nanoseconds to a few picoseconds. Samples were placed in a 10-mm path-length cuvette. The excitation was provided by the frequency-doubled output of a cavity-dumped pyridine-2 dye laser tuned at 370 nm synchronously pumped by a mode-locked argon ion laser. Sample emission was filtered through Corning 3-72 and 4-96 filters.
The governing equations for the time-resolved intensity decay data were assumed to be a sum of discrete exponentials as in I(t)=IoΣiαie^t/τ^i, where I(t) is the intensity decay, αi is the amplitude (pre-exponential factor) and τi is the fluorescence lifetime of the i-th discrete component; or a sum of Gaussian distribution functions as in the equation I(t)=IoΣiαiτe^t/τ and [formula]
In the frequency domain, the measured quantities at each frequency ω, are the phase shift (Øω) and demodulation factor (mω) of the emitted light versus the reference light.
Fractional intensity, amplitude, and lifetime parameters were recovered by a non-linear least squares procedure using the software developed at the Center for Fluorescence Spectroscopy. The measured data were compared with calculated values (Øcω,mcω) and the goodness of fit was characterized by [formula]
where ν is the number of degrees of freedom and δØ and δm are the uncertainties in the measured phase and modulation values, respectively. The sum extends over all frequencies (ω).

FM-β2AR [4] = assay: Quenching of FM-β2AR fluorescence (KI, oxyl-NHS, nitroxide fatty acids), Stern-Volmer; format: biochemical, human; conditions: ISO-induced change in fluorescence with quencher vs without; 250 mM KI vs 250 mM KCl; Oxyl-NHS bound to K224 in TM5; ALP reversal as measure; n=3
[5] = Gaussian lifetime distribution, long component
[6] = Gaussian lifetime distribution, short component
[7] = fit to discrete exponential functions

T1 sequence (P07550 whole entry): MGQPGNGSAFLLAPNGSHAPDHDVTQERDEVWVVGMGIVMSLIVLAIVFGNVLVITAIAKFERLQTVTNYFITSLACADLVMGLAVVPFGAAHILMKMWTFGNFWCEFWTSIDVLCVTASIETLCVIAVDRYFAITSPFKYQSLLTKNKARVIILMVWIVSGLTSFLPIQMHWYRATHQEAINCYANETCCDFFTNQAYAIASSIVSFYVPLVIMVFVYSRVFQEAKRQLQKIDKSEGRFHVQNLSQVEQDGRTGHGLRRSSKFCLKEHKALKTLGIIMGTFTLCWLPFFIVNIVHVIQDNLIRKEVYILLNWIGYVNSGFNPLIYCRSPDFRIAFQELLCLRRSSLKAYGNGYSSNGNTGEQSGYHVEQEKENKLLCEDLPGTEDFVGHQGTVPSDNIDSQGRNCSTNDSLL

effect on magnitude of the agonist-induced change in fluorescence (FM-β2AR [1]; 100 μM 5-DOX): no significant effect
quenching of baseline fluorescence (FM-β2AR [1]; 100 μM 5-DOX): 12%
quenching constant Ksv (nitroxide fatty acids) (FM-β2AR [1]): 1.4 ± 0.2 mM⁻¹
Compound: CCCCCCCCCCCCCC1(CCCC(=O)O)OCC(C)(C)N1[O] (stereo not shown) [5-DOX, 5-doxyl stearate]

effect on magnitude of the agonist-induced fluorescence change (FM-β2AR [1]; 50 μM CAT-16): more than two fold
quenching of baseline fluorescence (FM-β2AR [1]; 50 μM CAT-16): ~12%
quenching constant Ksv (nitroxide fatty acids) (FM-β2AR [1]): 2.4 ± 0.1 mM⁻¹
Compound: CCCCCCCCCCCCCCCC[N+](C)(C)C1CC(C)(C)N([O])C(C)(C)C1.[I-] [CAT-16]

change in FM-β2AR fluorescence (FM-β2AR [2]): progressively smaller changes
FWHMLONG (FM-β2AR [3]; [5]): 0.4±0.4
τLONG (FM-β2AR [3]; [5]): 4.38±0.01 nsec
FWHMSHORT (FM-β2AR [3]; [6]): 0.9±0.6
τSHORT (FM-β2AR [3]; [6]): 1.78±0.01 nsec
τ1 (nsec) (FM-β2AR [3]; [7]): 4.36 ± 0.01 nsec
τ2 (nsec) (FM-β2AR [3]; [7]): 1.68 ± 0.3 nsec
α2 (FM-β2AR [3]; fit to discrete exponential functions, fractional contribution of τ2): 0.07 ± 0.01
Compound: CC(CCc1ccc(O)cc1)NCCc1ccc(O)c(O)c1 (stereo not shown) [DOB, dobutamine]

Compound: [I-].[K+] [KI, potassium iodide]
% of control ISO response (FM-β2AR [4]): 55.4±8.3%

Compound: CNC[C@H](O)c1ccc(O)c(O)c1 [epinephrine]
change in FM-β2AR fluorescence (FM-β2AR [2]): progressively smaller changes
